How the values were obtained:
[1] = reported; cited from earlier work
[2] = test system: alpha 2-adrenoceptor regulated serotonin release; details: rat hippocampus in vivo; cited from earlier work
memory = details: very small doses, monkeys; cited from earlier work
[3] = Description: A study was conducted to examine for the first time the neuro-ocular tissue distribution of brimonidine following one single 50 μl instillation of 3H-Alphagan aqueous solution (0.2%) into the albino rabbit eye. Both eyes and the brain were dissected. Both side specimens of aqueous humor, cornea, iris, lens, vitreous, conjunctiva, sclera, ciliary body, choroid, retina, optic nerve, optic tract, olfactory bulb, as well as corpus callosum and blood samples were collected. The corpus callosum was chosen as an indicator of general availability of the drug in the brain. The olfactory bulbs were included to rule out ocular-brain drug delivery through the nasal cavity.
In the method employed, following single instillation of 50 μl of [3H]-radio labeled brimonidine tartrate in the cul-de-sac of the right eye, male albino rabbits (2-2.5 kg) were sacrificed at the selected time point (15, 30 min., 1, 2. 3, and 4 h). Both eyes and the brain were dissected. Both sides specimens of aqueous humor, cornea, iris, lens, vitreous, conjunctiva, sclera, ciliary body, choroid, retina, optic nerve, optic tract, as well as chiasm, cerebral and blood samples were weighted before combustion in Packard sample Oxidizer (model 307), and radioactive [3H] brimonidine liquid scintillation counting.

[4] = test system: migraine related symptoms; details: 0.2% topical to the eye, as additional antiglaucoma agent
Description: A patient with a history of migraine, and both eyes primary open angle glaucoma.
A patient with a history of migraine, and right eye primary open angle glaucoma.

Brc1c(NC2=NCCN2)ccc2nccnc12 [brimonidine, 5-bromo-6-(2-imidozolin-2-ylamino) quinoxaline]
systemic half life [1]: 3 h
effect on release of serotonin (5-HT) [2]: inhibitory action
effect on memory (memory): reliable but modest improvement of memory
contralateral eye choroid peak higher than in the blood ([3]; 15 min, P<0.001): 99.5 folds
contralateral eye ciliary body peak higher than in the blood ([3]; 15 min, P<0.001): 76.5 folds
corpus callosum AUC higher than in the left optic nerve ([3]; P<0.01): 118%
corpus callosum AUC higher than in the right optic nerve ([3]; P<0.01): 177%
corpus callosum AUC higher than in the right optic tract ([3]; P<0.05): 123%
corpus callosum AUC higher than in the left optic tract ([3]; P<0.10): 111%
corpus callosum 3H-brimonidine concentration ([3]; at 5 min): 993.79 ± 48.43 ng/g
corpus callosum concentration higher than in the right optic nerve ([3]; at 5 min, P<0.001): 763%
brimonidine concentration in the corpus callosum higher than in the blood ([3]; at 5 minutes, P<0.001): 148 folds
drug concentration detected in the blood samples ([3]; blood, after ocular instillation): extremely low
time of brimonidine delivery to the ciliary body of the contralateral eye ([3]; contralateral eye): < 5 min
ciliary body brimonidine level ([3]; contralateral eye, 5 minutes post drug application): 444.28 ± 86.38 ng/g
ciliary body brimonidine level, peak ([3]; contralateral eye, 15 minutes): 619.74 ± 36.35 ng/g
ciliary body AUC higher than in the conjunctiva ([3]; contralateral eye, P<0.001): 340%
ciliary body AUC higher than in the retina ([3]; contralateral eye, P<0.001): 322%
choroid AUC higher than in the conjunctiva ([3]; contralateral eye, P<0.01): 290%
choroid AUC higher than in the retina ([3]; contralateral eye, P<0.01): 275%
drug levels observed in the olfactory bulbs ([3]; olfactory bulbs): low
Vitreal AUC as % of aqueous humor AUC ([3]; treated eye, P<0.01): 8.85%
Choroidal brimonidine AUC higher than retinal AUC ([3]; treated eye, p<0.001): 196%
Retinal AUC higher than vitreous AUC ([3]; treated eye, p<0.001): 636%
Vitreal AUC as % of retinal AUC ([3]; treated eye, p<0.001): 15.7%
brimonidine AUC corpus callosum higher than blood ([3]; whole study period, P<0.001): 40 folds

tartrate of 5-bromo-6-(2-imidozolin-2-ylamino) quinoxaline [brimonidine tartrate]
patient-reported effect on migraine related symptoms [4]: substantial relief of migraine related symptoms
